Results on 16 molecules are retold here after PMC8981980 (Journal of medicinal chemistry, 2022).

“Also recorded” adds a separate entry of the source.

One data set concerns CSC stemness. To be noted: clonogenic colony formation assay; cited from earlier work.
For data set [1] the following is noted: cited from earlier work.
The target of the next data set is T1, CHD1L (Homo sapiens, UniProt Q86WJ1).
T1 sequence (Q86WJ1 41-540 limits assumed): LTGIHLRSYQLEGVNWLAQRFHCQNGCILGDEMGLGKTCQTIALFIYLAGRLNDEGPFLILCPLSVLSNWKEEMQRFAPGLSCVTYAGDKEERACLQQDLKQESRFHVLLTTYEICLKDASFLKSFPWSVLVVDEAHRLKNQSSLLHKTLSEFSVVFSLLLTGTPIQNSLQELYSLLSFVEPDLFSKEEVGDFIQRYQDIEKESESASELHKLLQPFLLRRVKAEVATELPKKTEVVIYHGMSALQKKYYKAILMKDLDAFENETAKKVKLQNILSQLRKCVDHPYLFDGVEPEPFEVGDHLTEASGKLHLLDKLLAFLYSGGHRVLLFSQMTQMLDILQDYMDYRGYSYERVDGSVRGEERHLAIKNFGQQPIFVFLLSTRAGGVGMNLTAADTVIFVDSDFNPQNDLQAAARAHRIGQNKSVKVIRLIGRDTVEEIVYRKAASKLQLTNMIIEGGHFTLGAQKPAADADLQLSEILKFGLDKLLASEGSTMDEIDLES
The data set can be described thus: SAR summary from cat-CHD1L inhibition and cell-based assays. Conditions: SAR statement relative to parent / 1-carbon analogs.

Another data set relates to SW620 tumor organoids. The data set can be described thus: SW620 tumor organoid viability. The format is cell-based. To be noted: compared to 6.1, 6.2 and 6.3; SI Table S1.
The nature of data set [2]: In vitro mouse microsomal stability. To be noted: compared with 6.0 / other tested CHD1Li.
Data set [3] has as its system HCT116 M-Phenotype tumor organoids (VimPro-GFP / EcadPro-RFP). The data set can be described thus: EMT dual-reporter 3D high-content imaging, HCT116 M-Phenotype tumor organoids. The format is cell-based. To be noted: as treatment dose increases.
For data set [4], the system named is SW620 isolated M-Phenotype flank tumors. As to the kind of experiment: Xenograft antitumor efficacy study. The format is in vivo, athymic nude mice.

Turning to `Cc1cc(Nc2ccc(NC(=O)Cc3cccs3)cc2)nc(N2CCCC2)n1` [6.0, N-(4-((6-methyl-2-(pyrrolidine-1-yl)pyrimidin-4-yl)amino)phenyl)-2-(thiophen-2-yl)acetamide], the CSC stemness entry in the data set on CSC stemness is listed as “significantly inhibits CSC stemness”. The maximum tolerated dose in data set [1] (intraperitoneal (IP) daily over five days) is listed as 50 mg/kg. Further, the liver toxicity entry in data set [1] (mice, 50 mg/kg IP daily over five days) was “does not display any liver toxicity”.

With `Cc1nc(N2CCCC2)nc(Nc2ccc(NC(=O)Cc3cccs3)cc2)c1F` [6.1, N-(4-((5-fluoro-6-methyl-2-(pyrrolidin-1-yl)pyrimidin-4-yl)amino)phenyl)-2-(thiophen-2-yl)acetamide], the “biological activity (cat-CHD1L inhibition and cell-based models)” value on CHD1L is given as “loss of inhibitor activity; also recorded: significant loss in activity”.

Turning to `O=C(Cc1cccs1)Nc1ccc(Nc2nc(N3CCCC3)ncc2F)cc1` [6.2, N-(4-((5-fluoro-2-(pyrrolidin-1-yl)pyrimidin-4-yl)amino)phenyl)-2-(thiophen-2-yl)acetamide], at CHD1L, the “biological activity (cat-CHD1L inhibition and cell-based models)” value was “loss of inhibitor activity”.

On to `Cc1nc(N2CCCC2)nc(N(C)c2ccc(NC(=O)Cc3cccs3)cc2)c1F` [6.3, N-(4-((5-fluoro-6-methyl-2-(pyrrolidin-1-yl)pyrimidin-4-yl)(methyl)amino)phenyl)-2-(thiophen-2-yl)acetamide], for which, at CHD1L, the “biological activity (cat-CHD1L inhibition and cell-based models)” value is on record as “loss of inhibitor activity; also recorded: diminished biological activity”.

Turning to `Cc1cc(Nc2ccc(NC(=O)c3c[nH]c4ccccc34)cc2)nc(N2CCCC2)n1` [6.4, N-(4-((6-methyl-2-(pyrrolidin-1-yl)pyrimidin-4-yl)amino)phenyl)-1H-indole-3-carboxamide], the “cell-based antitumor activity (potency)” value in the data set with SW620 tumor organoids was “maintained potency”. Further, the “metabolic stability to mouse liver microsomes” value (from here on “metabolic stability”) in data set [2] is reported as “increased the metabolic stability”.

`Cc1cc(Nc2ccc(NC(=O)Cc3c[nH]c4ccccc34)cc2)nc(N2CCCC2)n1` [6.5, 2-(1H-indol-3-yl)-N-(4-((6-methyl-2-(pyrrolidin-1-yl)pyrimidin-4-yl)amino)phenyl)acetamide]: the “metabolic stability” value in data set [2] is given as “increased the metabolic stability”. Moreover, in data set [3], the EcadPro-RFP promoter activity result was “upregulation” and the VimPro-GFP promoter activity result is given as “marked downregulation”.

For `Cc1cc(Nc2ccc(NC(=O)CCc3c[nH]c4ccccc34)cc2)nc(N2CCCC2)n1` [6.6, 3-(1H-indol-3-yl)-N-(4-((6-methyl-2-(pyrrolidin-1-yl)pyrimidin-4-yl)amino)phenyl) propanamide], the “biological activity (cat-CHD1L inhibition and cell-based models)” value on CHD1L was “loss of activity”.

As to `Cc1cc(Nc2ccc(NC(=O)CCCc3c[nH]c4ccccc34)cc2)nc(N2CCCC2)n1` [6.7, 4-(1H-indol-3-yl)-N-(4-((6-methyl-2-(pyrrolidin-1-yl)pyrimidin-4-yl)amino)phenyl)butanamide], the “biological activity (cat-CHD1L inhibition and cell-based models)” value at CHD1L is given as “loss of activity”.

With `Cc1cc(Nc2ccc(NC(=O)/C=C/c3c[nH]c4ccccc34)cc2)nc(N2CCCC2)n1` [6.8, (E)-3-(1H-indol-3-yl)-N-(4-((6-methyl-2-(pyrrolidin-1-yl)pyrimidin-4-yl)amino)phenyl) acrylamide], the “biological activity (cat-CHD1L inhibition and cell-based models)” value on CHD1L was “restores activity”.

For `COc1cnc(N2CCCC2)nc1Nc1ccc(NC(=O)Cc2cccs2)cc1` [6.10, N-(4-((5-methoxy-2-(pyrrolidin-1-yl)pyrimidin-4-yl)amino)phenyl)-2-(thiophen-2-yl)acetamide], on CHD1L, the “biological activity (cat-CHD1L inhibition and cell-based models)” value is listed as “significant loss in activity”.

Turning to `Cc1cc(Nc2ccc(NC(=O)Cc3cc(Br)cs3)cc2)nc(N2CCCC2)n1` [6.11, 2-(4-bromothiophen-2-yl)-N-(4-((6-methyl-2-(pyrrolidin-1-yl)pyrimidin-4-yl)amino)phenyl) acetamide], the “tolerability / gross toxicity” value in data set [4] (PO 75 mg/kg and 125 mg/kg 5-days/week over 30 days) is “no adverse gross toxicity”. Further, the tumor volume entry in data set [4] (PO 75 mg/kg and 125 mg/kg 5-days/week over 30 days, from day 20, highly significant after 28 days, vs vehicle) is reported as “significant decrease in tumor volume”. Besides, the body weight entry in data set [4] (during the treatment period, PO 28 days) was “increased body weight”. Also, the “metabolic stability” value in data set [2] was “most metabolically stable; also recorded: increased the metabolic stability”. For the same molecule, at CHD1L, the “biological activity (cat-CHD1L inhibition and cell-based models)” value is “most promising in vitro biological activity”.

As to `Cc1cc(Oc2ccc(NC(=O)Cc3cccs3)cc2)nc(Cl)n1` [6.12, N-(4-((2-chloro-6-methylpyrimidin-4-yl)oxy)phenyl)-2-(thiophen-2-yl)acetamide], the “biological activity (cat-CHD1L inhibition and cell-based models)” value at CHD1L is on record as “significant loss of activity”.

As for `Cc1cc(Oc2ccc(NC(=O)Cc3cccs3)cc2)nc(N2CCCC2)n1` [6.13, N-(4-((6-methyl-2-(pyrrolidin-1-yl)pyrimidin-4-yl)oxy)phenyl)-2-(thiophen-2-yl)acetamide], the “biological activity (cat-CHD1L inhibition and cell-based models)” value on CHD1L is given as “significant loss of activity”.

Consider `Cc1cc(Oc2ccc(NC(=O)c3c[nH]c4ccccc34)cc2)nc(N2CCCC2)n1` [6.14, N-(4-((6-methyl-2-(pyrrolidin-1-yl)pyrimidin-4-yl)oxy)phenyl)-1H-indole-3-carboxamide], for which the “biological activity (cat-CHD1L inhibition and cell-based models)” value on CHD1L was “significant loss of activity”.

Take `Cc1cc(Nc2ccc(NC(=O)Cc3cccs3)cc2)nc(N2CCOCC2)n1` [6.15, N-(4-((6-methyl-2-morpholinopyrimidin-4-yl)amino)phenyl)-2-(thiophen-2-yl)acetamide]: at CHD1L, the “biological activity (cat-CHD1L inhibition and cell-based models)” value was “significant loss in biological activity”.

Consider `Cc1cc(Nc2ccc(NC(=O)Cc3cc(Cl)nc4ccccc34)cc2)nc(N2CCCC2)n1` [6.31], for which, in data set [2], the “metabolic stability” value is reported as “increased the metabolic stability”.
